Assay results: ChEMBL document CHEMBL3885881, “DrugMatrix”

Species: Rattus norvegicus
Experiment: DrugMatrix - Regimen: Daily Repeat
Assay type: toxicity, organism-based, Sprague-Dawley
Parameters: regimen Daily Repeat, gender Male, age 6-8 weeks
Details: in vivo, po, route oral GAVAGE, […]; for ABSOLUTE BASOPHIL / BASOPHIL / ABSOLUTE EOSINOPHIL / ABSOLUTE LYMPHOCYTE / ABSOLUTE MONOCYTE / ABSOLUTE SEGMENTED NEUTROPHIL / EOSINOPHIL / ERYTHROCYTE COUNT / HEMATOCRIT / HEMOGLOBIN / LEUKOCYTE COUNT / LYMPHOCYTE / MEAN CORPUSCULAR HEMOGLOBIN / MEAN CORPUSCULAR HEMOGLOBIN CONCENTRATION / MEAN CORPUSCULAR VOLUME / MONOCYTE / NEUTROPHIL / NUCLEATED RED BLOOD CELLS / PLATELET COUNT: tissue Blood; for ALANINE AMINOTRANSFERASE / ALKALINE PHOSPHATASE / ASPARTATE AMINOTRANSFERASE / BLOOD UREA NITROGEN / CARBON DIOXIDE / CHLORIDE / CHOLESTEROL / CREATINE PHOSPHOKINASE / CREATININE / GLUCOSE / LACTATE DEHYDROGENASE / LIPASE / PHOSPHORUS / POTASSIUM / SODIUM / TOTAL BILIRUBIN: tissue Plasma
[1] = 0 mg/kg, 72 h, dose level Control, time 3 day
[2] = 0 mg/kg, 120 h, dose level Control, time 5 day
[3] = 0.3 mg/kg, 72 h, dose level Low, time 3 day
[4] = 0.3 mg/kg, 120 h, dose level Low, time 5 day
[5] = 27 mg/kg, 72 h, dose level M1, time 3 day
[6] = 54 mg/kg, 72 h, dose level High, time 3 day

## CN(Cc1cnc2nc(N)nc(N)c2n1)c1ccc(C(=O)N[C@@H](CCC(=O)O)C(=O)O)cc1 [METHOTREXATE]
[1]
  ABSOLUTE BASOPHIL: 0 CELLS/uL
  BASOPHIL: 0%
[2]
  ABSOLUTE BASOPHIL: 0 CELLS/uL
  ABSOLUTE EOSINOPHIL: 331.5 CELLS/uL
  BASOPHIL: 0%
[3]
  ABSOLUTE BASOPHIL: 0 CELLS/uL
  ABSOLUTE EOSINOPHIL: 94 CELLS/uL
  ABSOLUTE LYMPHOCYTE: 7221.33 CELLS/uL
  ABSOLUTE MONOCYTE: 172.67 CELLS/uL
  ABSOLUTE SEGMENTED NEUTROPHIL: 2345.33 CELLS/uL
  BASOPHIL: 0%
  EOSINOPHIL: 0.67%
  ERYTHROCYTE COUNT: 5.78 x10E6/uL
  HEMATOCRIT: 37.2%
  HEMOGLOBIN: 14.3 G/DL
  LEUKOCYTE COUNT: 9.83 x10E3/uL
  LYMPHOCYTE: 70%
  MEAN CORPUSCULAR HEMOGLOBIN: 24.77 pg
  MEAN CORPUSCULAR HEMOGLOBIN CONCENTRATION: 38.47 G/DL
  MEAN CORPUSCULAR VOLUME: 64.33 fL
  MONOCYTE: 1.67%
  NEUTROPHIL: 27.67%
  NUCLEATED RED BLOOD CELLS: 0 /100WBC
  PLATELET COUNT: 997.67 x10E3/uL
  ALANINE AMINOTRANSFERASE: 69 u/L
  ALKALINE PHOSPHATASE: 597.33 u/L
  ASPARTATE AMINOTRANSFERASE: 118.33 u/L
  BLOOD UREA NITROGEN: 12.33 mg/dL
  CARBON DIOXIDE: 20 mmol/L
  CHLORIDE: 100.67 MEQ/L
  CHOLESTEROL: 42.33 mg/dL
  CREATINE PHOSPHOKINASE: 1224.33 u/L
  CREATININE: 0.11 mg/dL
  GLUCOSE: 237.67 mg/dL
  LACTATE DEHYDROGENASE: 410.67 u/L
  LIPASE: 11.67 u/L
  PHOSPHORUS: 14.63 mg/dL
  POTASSIUM: 6.55 MEQ/L
  SODIUM: 141.9 MEQ/L
  TOTAL BILIRUBIN: 0.13 mg/dL
[4]
  ABSOLUTE BASOPHIL: 0 CELLS/uL
  ABSOLUTE EOSINOPHIL: 124.67 CELLS/uL
  ABSOLUTE LYMPHOCYTE: 6857.33 CELLS/uL
  ABSOLUTE MONOCYTE: 225.67 CELLS/uL
  ABSOLUTE SEGMENTED NEUTROPHIL: 959 CELLS/uL
  BASOPHIL: 0%
  EOSINOPHIL: 1.33%
  ERYTHROCYTE COUNT: 5.9 x10E6/uL
  HEMATOCRIT: 37.7%
  HEMOGLOBIN: 14.3 G/DL
  LEUKOCYTE COUNT: 8.17 x10E3/uL
  LYMPHOCYTE: 82.33%
  MEAN CORPUSCULAR HEMOGLOBIN: 24.27 pg
  MEAN CORPUSCULAR HEMOGLOBIN CONCENTRATION: 37.93 G/DL
  MEAN CORPUSCULAR VOLUME: 63.93 fL
  MONOCYTE: 2.67%
  NEUTROPHIL: 13.67%
  NUCLEATED RED BLOOD CELLS: 0 /100WBC
  PLATELET COUNT: 1097 x10E3/uL
  ALANINE AMINOTRANSFERASE: 52.33 u/L
  ALKALINE PHOSPHATASE: 510 u/L
  ASPARTATE AMINOTRANSFERASE: 80.33 u/L
  BLOOD UREA NITROGEN: 10 mg/dL
  CARBON DIOXIDE: 24 mmol/L
  CHLORIDE: 102.33 MEQ/L
  CHOLESTEROL: 38 mg/dL
  CREATINE PHOSPHOKINASE: 556.67 u/L
  CREATININE: 0.1 mg/dL
  GLUCOSE: 165.67 mg/dL
  LACTATE DEHYDROGENASE: 131.67 u/L
  LIPASE: 6.67 u/L
  PHOSPHORUS: 12.1 mg/dL
  POTASSIUM: 6.83 MEQ/L
  SODIUM: 142.1 MEQ/L
  TOTAL BILIRUBIN: 0.2 mg/dL
[5]
  ABSOLUTE BASOPHIL: 0 CELLS/uL
  ABSOLUTE EOSINOPHIL: 0 CELLS/uL
  BASOPHIL: 0%
  EOSINOPHIL: 0%
  NUCLEATED RED BLOOD CELLS: 0 /100WBC
  CREATININE: 0.19 mg/dL
  TOTAL BILIRUBIN: 0.13 mg/dL
[6]
  ABSOLUTE BASOPHIL: 0 CELLS/uL
  ABSOLUTE EOSINOPHIL: 68 CELLS/uL
  ABSOLUTE LYMPHOCYTE: 3442 CELLS/uL
  ABSOLUTE MONOCYTE: 42 CELLS/uL
  ABSOLUTE SEGMENTED NEUTROPHIL: 1648 CELLS/uL
  BASOPHIL: 0%
  EOSINOPHIL: 1%
  ERYTHROCYTE COUNT: 7.17 x10E6/uL
  HEMATOCRIT: 43.93%
  HEMOGLOBIN: 17.27 G/DL
  LEUKOCYTE COUNT: 5.2 x10E3/uL
  LYMPHOCYTE: 69%
  MEAN CORPUSCULAR HEMOGLOBIN: 24.07 pg
  MEAN CORPUSCULAR HEMOGLOBIN CONCENTRATION: 39.3 G/DL
  MEAN CORPUSCULAR VOLUME: 61.23 fL
  MONOCYTE: 1%
  NEUTROPHIL: 29%
  NUCLEATED RED BLOOD CELLS: 0 /100WBC
  PLATELET COUNT: 1149 x10E3/uL
  ALANINE AMINOTRANSFERASE: 26.33 u/L
  ALKALINE PHOSPHATASE: 163 u/L
  ASPARTATE AMINOTRANSFERASE: 107 u/L
  BLOOD UREA NITROGEN: 23 mg/dL
  CARBON DIOXIDE: 18.67 mmol/L
  CHLORIDE: 94.5 MEQ/L
  CHOLESTEROL: 36 mg/dL
  CREATINE PHOSPHOKINASE: 1782.67 u/L
  CREATININE: 0.13 mg/dL
  GLUCOSE: 207.67 mg/dL
  LACTATE DEHYDROGENASE: 368.67 u/L
  LIPASE: 37 u/L
  PHOSPHORUS: 11.03 mg/dL
  POTASSIUM: 5.79 MEQ/L
  SODIUM: 137 MEQ/L
  TOTAL BILIRUBIN: 0.2 mg/dL
